We go through three molecules from paper PMC12006171, “Marsupial cathelicidins: characterization, antimicrobial activity and evolution in this unique mammalian lineage” (Frontiers in Immunology, 2025).

What all share (format): cell-based
The subject of assay [1] is Staphylococcus aureus clinical isolate – animal, methicillin-resistant (MRSA). Conditions: clinical isolate – animal, methicillin-resistant. The method, then:
(§1) Antimicrobial testing of 78 cathelicidin MPs was performed in two phases as outlined in Figure 1 . In phase I, 40 peptides (27 extant and 13 ancestral) were selected for testing based on rank (outlined above) and similarity to published marsupial cathelicidins with known antimicrobial activity ([33], [41]–[43]). These peptides were tested against nine bacteria (Staphylococcus aureus ATCC 29213 and clinical isolate, Escherichia coli ATCC 25922 and clinical isolate, Pseudomonas aeruginosa ATCC 27853 and clinical isolate, Streptococcus agalactiae ATCC 12386 and clinical isolate, Streptococcus pneumoniae ATCC 49619) and three fungi (Candida krusei ATCC 6258, Candida parapsilosis ATCC 22019, and Candida albicans clinical isolate). Details regarding these strains are available in Supplementary Table 4 . The antimicrobial activity of cathelicidins was determined as the minimum inhibitory concentration (MIC), which was the lowest concentration of cathelicidin that prevented visible bacterial or fungal growth, relative to the negative control. […] Minimum bactericidal concentration (MBC) and/or minimum fungicidal concentration (MFC) was conducted to determine microbicidal versus static action. Activity against S. aureus ATCC, E. coli ATCC, and Pseudomonas aeruginosa ATCC 27853 was examined in the presence of divalent cations to determine the impact of inhibitors.
(§2) Antimicrobial activity was determined using a broth microdilution susceptibility assay in 96 well polypropylene plates according to Clinical Laboratory Standards Institute guidelines M07-A and M26A as described previously ([33], [42], [43]). The bacterial and fungal isolates from humans and animals used in this study are outlined in Supplementary Table 4 . Only yeasts were included in the panel of fungi as they have been used in the susceptibility testing of eutherian ([3], [81]–[83]) and other marsupial cathelicidins previously ([33], [42], [43]). Cathelicidin mature peptides were solubilized in DMSO and serially diluted in duplicate from 128-0.25μg/mL in a final volume of 100µL. For bacteria, cathelicidins were diluted in Mueller Hinton Broth (MHB) with or without 10% lysed horse blood, and with (MH II B) or without (MHB) calcium and magnesium cations. For fungi, cathelicidins were diluted in Roswell Park Memorial Institute medium (RPMI)-1640 MOPS. Ampicillin or tetracycline were included as a positive control for Gram-positive and -negative bacteria respectively, while amphotericin B was used for fungi. A media-only negative control and growth control (no cathelicidin) were also included on each plate. Bacteria were sub-cultured on Muller Hinton agar (MHA) or sheep blood agar (BA), and fungi on Sabouraud dextrose agar (SAB), 20–24 hours prior to the test. Colonies were suspended in saline, the concentration adjusted to a 0.5 McFarland standard, and then diluted in media to a concentration of 1.0 x 10^6 cells/mL. Then, 100μL was added to each well of the cathelicidin dilution plate, giving a final inoculum density of 5 x 10^5 CFU/mL and cathelicidin concentration of 64-0.125μg/mL. Colony counts were performed on MHA/BA/SAB to confirm inoculum density. All plates were incubated at 35°C for 20–24 hours, depending on the strain.
(§3) Colonies were counted and compared to the colony count of the starting inoculum.

The test system of assay [2] is Staphylococcus aureus clinical isolate – animal, penicillin-resistant (PRSA). The following applies: clinical isolate – animal, penicillin-resistant (PRSA). The method, then:
as §1, §2, §3

Assay [3] concerns Staphylococcus aureus clinical isolate - animal. The assay can be described thus: microbe, parasite or virus in culture. The following applies: clinical isolate - animal. The procedure, abridged:
(§4)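 CLSI broth microdilution, MHB ± cations ± 10% lysed horse blood; peptide 64-0.125μg/mL final, duplicates; 5 x 10^5 CFU/mL; 35°C, 20–24 h; MIC = no visible growth.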

For assay [4], the system named is Pseudomonas aeruginosa clinical isolate - animal. The experiment in a line: microbe, parasite or virus in culture. The following applies: clinical isolate - animal. In a few lines: as §4
Assay [5] concerns Pseudomonas aeruginosa ATCC 27853. The experiment in a line: microbe, parasite or virus in culture. The following applies: ATCC 27853. In a few lines: as §4
In assay [6] the test system is Escherichia coli clinical isolate - animal. The experiment in a line: microbe, parasite or virus in culture. Conditions: clinical isolate - animal. The procedure, abridged: as §4
Assay [7] relates to Staphylococcus aureus ATCC 29213. The experiment in a line: microbe, parasite or virus in culture. Conditions: ATCC 29213. The procedure, abridged:
as §4

The subject of assay [8] is Escherichia coli ATCC 25922. The assay can be described thus: microbe, parasite or virus in culture. The following applies: ATCC 25922. The procedure, abridged:
as §4

In assay [9] the test system is Streptococcus agalactiae Clinical isolate - animal. The experiment in a line: microbe, parasite or virus in culture. Conditions: clinical isolate - animal; read-out: MIC S. agalactiae. How it is done:
as §1, §2, §3

Assay [10] deals with Candida parapsilosis ATCC 22019. The assay can be described thus: microbe, parasite or virus in culture. Conditions: ATCC 22019. How it is done:
as §1, §2, §3

The test system of assay [11] is Streptococcus agalactiae ATCC 12386. The experiment in a line: microbe, parasite or virus in culture. The following applies: ATCC 12386; read-out: MIC S. agalactiae ATCC. How it is done: as §1, §2, §3
In assay [12] the test system is Streptococcus pneumoniae ATCC 49619. The assay can be described thus: microbe, parasite or virus in culture. The following applies: ATCC 49619; read-out: MIC S. pneumoniae ATCC. How it is done:
as §1, §2, §3

For the next assay, the system named is Candida krusei ATCC 6258. The experiment in a line: microbe, parasite or virus in culture. The following applies: ATCC 6258; read-out: MIC C. krusei ATCC. How it is done: as §1, §2, §3
In assay [13] the test system is six bacteria (S. aureus, E. coli, P. aeruginosa; ATCC and clinical isolate). The method, then: as §1
In phase II, the remaining 38 peptides (37 extant and one ancestral) were tested against six bacteria (S. aureus ATCC and clinical isolate, E. coli ATCC and clinical isolate, and P. aeruginosa ATCC and clinical isolate). […] No further testing on phase II peptides was performed. Detailed methods for all assays are provided in subsequent sections.
as §2, §3

The mark [14] stands for this setting: read-out: MIC P. aeruginosa ATCC.
[15] abbreviates: read-out: MIC in the presence of cations E. coli ATCC.

Values after ≈ are worked out from the molar mass of the structure shown. Read-outs that look alike come from different tables or passages of the source. Where a SMILES comes first, the peptide text is derived from it. Where no end group is shown, it is not given here.

On to `CC[C@H](C)[C@H](NC(=O)[C@H](CCCNC(=N)N)NC(=O)[C@@H](N)CCCCN)C(=O)NCC(=O)N[C@@H](CC(C)C)C(=O)NCC(=O)NCC(=O)N[C@@H](CC(C)C)C(=O)N[C@H](C(=O)N[C@@H](CCCNC(=N)N)C(=O)N[C@@H](CCCNC(=N)N)C(=O)N[C@H](C(=O)N[C@@H](CC(C)C)C(=O)N[C@@H](CC(=O)O)C(=O)N[C@@H](CCCNC(=N)N)C(=O)N[C@H](C(=O)N[C@@H](CCCNC(=N)N)C(=O)N[C@@H](CCCNC(=N)N)C(=O)N[C@@H](CCCNC(=N)N)C(=O)NCC(=O)O)[C@@H](C)CC)[C@@H](C)CC)C(C)C` [AnstCath4] (H-KRIGLGGLVRRILDRIRRRG-OH), for which, in assay [1], the “MBC MRSA” value worked out at 27.1 µM (≈ 64 µg/mL) and the “MIC MRSA” value is listed as 13.5 µM (≈ 31.9 µg/mL). In [2], the MBC PRSA was 6.7 µM (≈ 15.8 µg/mL) and the MIC PRSA was 6.7 µM (≈ 15.8 µg/mL). In addition, in [3], the “MBC S. aureus” value is given as 13.5 (13.5)^13.5 µM, the “MIC S. aureus” value is reported as 13.5 (13.5)^13.5 µM and the “MIC in the presence of cations S. aureus” value is given as 13.5 (13.5)^13.5 µM. The MIC in assay [4] (read-out: MIC P. aeruginosa) is more than 27.1 µM. Besides, the MIC in assay [5] (setting [14]) is more than 27.1 µM. In assay [6], the “MBC E. coli” value is listed as 27.1 µM (≈ 64 µg/mL), the MIC came out at 13.5 µM (≈ 31.9 µg/mL) and the “MIC in the presence of cations E. coli” value turned out to be 27.1 µM. In [7], the “MBC S. aureus ATCC” value is listed as 13.5 (13.5)^13.5 µM, the “MIC S. aureus ATCC” value was 13.5 (13.5)^13.5 µM and the “MIC in the presence of cations S. aureus ATCC” value is given as 13.5 (13.5)^13.5 µM. For the same molecule, in assay [8], the “MBC E. coli ATCC” value is 27.1 (27.1)^27.1 µM and the “MIC E. coli ATCC” value was 27.1 (27.1)^27.1 µM. For the same molecule, in assay [9], the MIC is reported as more than 27.1 µM. Besides, in assay [10], the “MFC C. parapsilosis ATCC” value was 64 (>64) µg/mL. Also, in assay [11], the MIC was more than 27.1 µM. In assay [12], the MIC is given as more than 27.1 µM. The MIC with Candida krusei ATCC 6258 came out at 8.9 µM (≈ 21 µg/mL).
Molecule `CC[C@H](C)[C@H](NC(=O)[C@H](CCC(N)=O)NC(=O)[C@H](Cc1ccccc1)NC(=O)[C@H](CC(N)=O)NC(=O)[C@H](CCCCN)NC(=O)[C@H](CC(C)C)NC(=O)[C@H](CCCNC(=N)N)NC(=O)[C@H](CCCCN)NC(=O)[C@H](CCCCN)NC(=O)[C@@H](NC(=O)[C@H](CO)NC(=O)[C@H](CCCCN)NC(=O)CNC(=O)[C@H](CC(C)C)NC(=O)[C@H](CCCCN)NC(=O)[C@H](CCCCN)NC(=O)[C@H](CC(C)C)NC(=O)[C@H](CCCCN)NC(=O)[C@H](CCCCN)NC(=O)[C@H](CCCNC(=N)N)NC(=O)[C@H](CC(C)C)NC(=O)CNC(=O)[C@@H](N)CCCNC(=N)N)[C@@H](C)CC)C(=O)NCC(=O)N[C@@H](Cc1ccccc1)C(=O)N[C@@H](CO)C(=O)N[C@H](C(=O)N1CCC[C@H]1C(=O)N[C@@H](Cc1ccccc1)C(=O)N[C@@H](C)C(=O)NCC(=O)O)C(C)C` [PegaCath4] (H-RGLRKKLKKLGKSIKKRLKNFQIGFSVPFAG-OH) displayed an MBC MRSA in assay [1] of more than 18 µM. In [1], the MIC MRSA was found to be 18 µM (≈ 63.8 µg/mL). Besides, the “MBC PRSA” value in [2] is given as more than 18 µM. The “MIC PRSA” value in assay [2] is reported as 4.5 µM (≈ 15.9 µg/mL). Besides, in assay [3], the “MIC S. aureus” value is reported as 18 (>18)^18 µM. The “MIC in the presence of cations S. aureus” value in assay [3] is 18 (>18)^18 µM. Further, the “MBC P. aeruginosa” value in [4] is 4.5 µM (≈ 15.9 µg/mL). Moreover, the MIC came to 2.2 µM (≈ 7.8 µg/mL) in assay [4] (read-out: MIC P. aeruginosa); 2.2 µM in assay [4] (read-out: MIC in the presence of cations P. aeruginosa); 2.2 µM (≈ 7.8 µg/mL) in [5] (setting [14]); 2.2 µM in assay [5] (read-out: MIC in the presence of cations P. aeruginosa ATCC); 1.1 µM (≈ 3.9 µg/mL) in assay [6]; 9 µM (≈ 31.9 µg/mL) in assay [7] (read-out: MIC S. aureus ATCC). Moreover, the MIC was 18 µM in assay [7] (read-out: MIC in the presence of cations S. aureus ATCC); 1.1 µM (≈ 3.9 µg/mL) in [8] (read-out: MIC E. coli ATCC); 1.1 µM in [8] (setting [15]); more than 18 µM in [9]; more than 18 µM in assay [11]; more than 18 µM in [12]. In addition, the “MBC P. aeruginosa ATCC” value in assay [5] was determined as 4.5 µM (≈ 15.9 µg/mL). Besides, the “MBC E. coli” value in assay [6] is recorded as 1.1 µM (≈ 3.9 µg/mL). Further, the “MBC E. coli ATCC” value in assay [8] came out at 2.2 µM (≈ 7.8 µg/mL). Further, the “MIC against at least one strain” value in assay [13] was 4 µg/mL (≈ 1.13 µM).
In the case of “KVKRGLWDSVKKKVSKFRNSIRRRVTSFKIGAADIRKGYSVA [BepeCath7]”, the MIC in [3] (read-out: MIC S. aureus) is more than 13.2 µM; in assay [4] (read-out: MIC P. aeruginosa), more than 13.2 µM; in assay [5] (setting [14]), more than 13.2 µM; in assay [6] it was 6.6 µM; in assay [7] (read-out: MIC S. aureus ATCC), more than 13.2 µM; in assay [8] (read-out: MIC E. coli ATCC), 6.6 µM. In addition, the MIC in assay [8] (setting [15]) is 6.6 µM; in [9] it was more than 13.2 µM; in [11], more than 13.2 µM; in assay [12], more than 13.2 µM. Moreover, the “MBC E. coli” value in assay [6] was 13.2 µM. Also, the “MIC in the presence of cations E. coli” value in assay [6] is given as 6.6 µM. The “MBC E. coli ATCC” value in assay [8] was 13.2 µM.
